This test concerns the target Intermediate conductance calcium-activated potassium channel protein 4 (Homo sapiens, UniProt O15554). Briefly: Inhibition of human KCa3.1 overexpressed in HEK293 cells assessed as thallium influx preincubated for 15 mins followed by thallium/ionomycin addition measured for 50 secs by FLIPR assay. The format is cell-based.

Intermediate conductance calcium-activated potassium channel protein 4, sequence (O15554 whole entry): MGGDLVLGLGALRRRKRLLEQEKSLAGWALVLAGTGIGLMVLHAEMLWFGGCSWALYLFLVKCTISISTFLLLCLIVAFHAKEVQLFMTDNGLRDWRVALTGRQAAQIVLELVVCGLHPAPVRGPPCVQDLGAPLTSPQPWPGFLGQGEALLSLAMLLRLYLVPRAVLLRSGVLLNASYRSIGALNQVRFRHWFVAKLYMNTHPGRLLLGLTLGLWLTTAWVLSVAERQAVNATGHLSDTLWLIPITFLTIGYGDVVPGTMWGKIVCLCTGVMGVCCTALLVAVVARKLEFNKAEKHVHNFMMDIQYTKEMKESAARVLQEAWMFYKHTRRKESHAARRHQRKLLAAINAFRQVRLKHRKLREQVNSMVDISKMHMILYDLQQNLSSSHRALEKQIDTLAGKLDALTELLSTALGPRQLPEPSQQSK

Broadly, the IC50 is the concentration that inhibits the measured activity by half. As for `CC(c1ccc(F)c(OC(F)(F)F)c1)N1C(=O)CS(=O)(=O)c2ccsc21` (configuration not stated), the IC50 amounted to 39 nM. Under `CC(c1ccc(F)c(OC(F)(F)F)c1)N1C(=O)CSc2ncsc21` (configuration not stated) stands 60 nM.

(Values after ChEMBL document CHEMBL3286343, “Fused Thiazin-3-ones as KCa3.1 Inhibitors” (ACS Med Chem Lett, 2014).)
